ChEMBL document CHEMBL6078657, “Thiazolidinedione-based structure modification of ergosterol peroxide provides thiazolidinedione-conjugated derivatives as potent agents against breast cancer cells through a PI3K/AKT/mTOR pathway” (Bioorg Med Chem, 2025)
Calls of active or inactive are those of the source. No cut-off for these calls is given here.

What was measured:
MCF7 [1] = assay: Induction of cell cycle arrest in human MCF7 cells assessed as accumulation of cells at G2/M phase at 6 uM measured after 48 hrs by PI staining based flow cytometry analysis (reference value: 16.91%); type: functional
MCF7 [2] = assay: Induction of cell cycle arrest in human MCF7 cells assessed as accumulation of cells at G0/G1 phase at 3 uM measured after 48 hrs by PI staining based flow cytometry analysis (reference value: 58.42%); type: functional
MCF7 [3] = assay: Induction of apoptosis in human MCF7 cells assessed as decrease in mitochondrial membrane potential by measuring increase in JC-1 monomer (green fluorescence) at 6 uM incubated for 48 hrs by JC-1 staining based flow cytometry analysis (reference value: 2.96%); type: functional; design: scale not given: the % may be the effect or the level left
[4] = Toxicity in healthy BALB/c mouse assessed as pathological changes in kidneys at 20 mg/kg, ip daily for 14 consecutive days by HE staining based assay; type: organism-based; conditions: in vivo, 336 h, time 14 day
MCF7 [5] = assay: Inhibition of phosphorylation of Akt in human MCF7 cells measured after 48 hrs by Western blot analysis; type: cell-based; conditions: dose 1-6 µM
[6] = Selectivity index, ratio of IC50 for human MCF-10A cells to IC50 for human MCF7 cells; type: toxicity; conditions: MCF-10A cells and MCF7 cells, read-out: Selectivity Index
MCF7 [7] = assay: Induction of apoptosis in human MCF7 cells assessed as late apoptotic cells at 3 uM measured after 48 hrs incubation by Annexin V-FITC/PI double staining assay (reference value: 0.68%); type: functional
MCF7 [8] = assay: Induction of cell cycle arrest in human MCF7 cells assessed as accumulation of cells at G2/M phase at 1 uM measured after 48 hrs by PI staining based flow cytometry analysis (reference value: 16.91%); type: functional
MCF7 [9] = assay: Induction of apoptosis in human MCF7 cells assessed as early apoptotic cells at 1 uM measured after 48 hrs incubation by Annexin V-FITC/PI double staining assay (reference value: 5.73%); type: functional
4T1 [10] = assay: In vivo antitumor activity against mouse 4T1 cells transfected in BALB/c mouse assessed as tumor growth inhibition at 15 mg/kg, ip daily for 14 consecutive days relative to control; type: functional; conditions: 4T1, 336 h, time 14 day, read-out: TGI
MCF7 [11] = assay: Induction of cell cycle arrest in human MCF7 cells assessed as accumulation of cells at G0/G1 phase at 1 uM measured after 48 hrs by PI staining based flow cytometry analysis (reference value: 58.42%); type: functional
MCF7 [12] = assay: Induction of apoptosis in human MCF7 cells assessed as necrotic cells at 1 uM measured after 48 hrs incubation by Annexin V-FITC/PI double staining assay (reference value: 0.77%); type: functional
MCF7 [13] = assay: Induction of apoptosis in human MCF7 cells assessed as necrotic cells at 3 uM measured after 48 hrs incubation by Annexin V-FITC/PI double staining assay (reference value: 0.77%); type: functional
[14] = Toxicity in healthy BALB/c mouse assessed as pathological changes in lungs at 20 mg/kg, ip daily for 14 consecutive days by HE staining based assay; type: organism-based; conditions: in vivo, 336 h, time 14 day
MCF7 [15] = assay: Induction of apoptosis in human MCF7 cells assessed as decrease in mitochondrial membrane potential by measuring increase in JC-1 monomer (green fluorescence) at 1 uM incubated for 48 hrs by JC-1 staining based flow cytometry analysis (reference value: 2.96%); type: functional; design: scale not given: the % may be the effect or the level left
MCF7 [16] = assay: Inhibition of phosphorylation of PI3K in human MCF7 cells measured after 48 hrs by Western blot analysis; type: cell-based; conditions: dose 1-6 µM
MCF7 [17] = assay: Induction of cell cycle arrest in human MCF7 cells assessed as accumulation of cells at S phase at 1 uM measured after 48 hrs by PI staining based flow cytometry analysis (reference value: 24.67%); type: functional
MCF7 [18] = assay: Growth inhibition of human MCF7 cells assessed as ruptured membrane and shrunken nucleus at 1 to 6 uM incubated up to 48 hrs by acridine orange/ethidium bromide (AO/EB) staining based assay; type: functional, cell-based; conditions: dose 1-6 µM
MCF7 [19] = assay: Antiproliferative activity against human MCF7 cells assessed as cell viability measured after 48 hrs incubation by MTT assay; type: functional, cell-based; conditions: MCF7, 48 h
MCF7 [20] = assay: Induction of apoptosis in human MCF7 cells assessed as decrease in mitochondrial membrane potential by measuring increase in JC-1 monomer (green fluorescence) at 3 uM incubated for 48 hrs by JC-1 staining based flow cytometry analysis (reference value: 2.96%); type: functional; design: scale not given: the % may be the effect or the level left
[21] = Toxicity in healthy BALB/c mouse assessed as pathological changes in heart at 40 mg/kg, ip daily for 14 consecutive days by HE staining based assay; type: organism-based; conditions: in vivo, 336 h, time 14 day
MCF7 [22] = assay: Induction of cell cycle arrest in human MCF7 cells assessed as accumulation of cells at S phase at 6 uM measured after 48 hrs by PI staining based flow cytometry analysis (reference value: 24.67%); type: functional
MCF7 [23] = assay: Induction of apoptosis in human MCF7 cells assessed as viable cells at 6 uM measured after 48 hrs incubation by Annexin V-FITC/PI double staining assay (reference value: 92.8%); type: functional; conditions: read-out: Activity
MCF7 [24] = assay: Induction of apoptosis in human MCF7 cells assessed as decrease in mitochondrial membrane potential by measuring increase in JC-1 monomer (green fluorescence) incubated for 48 hrs by JC-1 staining based flow cytometry analysis; type: functional, cell-based; conditions: dose 1-6 µM
[25] = Toxicity in healthy BALB/c mouse assessed as pathological changes in lungs at 40 mg/kg, ip daily for 14 consecutive days by HE staining based assay; type: organism-based; conditions: in vivo, 336 h, time 14 day
[26] = Toxicity in healthy BALB/c mouse assessed as pathological changes in kidney at 40 mg/kg, ip daily for 14 consecutive days by HE staining based assay; type: organism-based; conditions: in vivo
4T1 [27] = assay: In vivo antitumor activity against mouse 4T1 cells transfected in BALB/c mouse assessed as tumor growth inhibition at 30 mg/kg, ip daily for 14 consecutive days relative to control; type: functional; conditions: 4T1, 336 h, time 14 day, read-out: TGI
[28] = Toxicity in healthy BALB/c mouse assessed as pathological changes in liver at 40 mg/kg, ip daily for 14 consecutive days by HE staining based assay; type: organism-based; conditions: in vivo, 336 h, time 14 day
MCF7 [29] = assay: Induction of apoptosis in human MCF7 cells assessed as early apoptotic cells at 6 uM measured after 48 hrs incubation by Annexin V-FITC/PI double staining assay (reference value: 5.73%); type: functional
A549 = assay: Antiproliferative activity against human A549 cells assessed as cell viability measured after 48 hrs incubation by MTT assay; type: functional, cell-based; conditions: A549, 48 h
[30] = Toxicity in healthy BALB/c mouse assessed as pathological changes in spleen at 40 mg/kg, ip daily for 14 consecutive days by HE staining based assay; type: organism-based; conditions: in vivo, 336 h, time 14 day
HepG2 = assay: Antiproliferative activity against human HepG2 cells assessed as cell viability measured after 48 hrs incubation by MTT assay; type: functional, cell-based; conditions: HepG2, 48 h
[31] = Toxicity in healthy BALB/c mouse assessed as pathological changes in spleen at 20 mg/kg, ip daily for 14 consecutive days by HE staining based assay; type: organism-based; conditions: in vivo, 336 h, time 14 day
MCF7 [32] = assay: Induction of cell cycle arrest in human MCF7 cells assessed as accumulation of cells at G2/M phase at 3 uM measured after 48 hrs by PI staining based flow cytometry analysis (reference value: 16.91%); type: functional
[33] = Toxicity in healthy BALB/c mouse assessed as pathological changes in liver at 20 mg/kg, ip daily for 14 consecutive days by HE staining based assay; type: organism-based; conditions: in vivo, 336 h, time 14 day

SMILES: CC(C)[C@@H](C)/C=C/[C@@H](C)[C@H]1CC[C@@H]2[C@]1(C)CC[C@H]1[C@]23C=C[C@]2(C[C@@H](OC(=O)NCCNC(=O)CN4C(=O)S/C(=C\c5cccc6ccccc56)C4=O)CC[C@]12C)OO3
- Activity (MCF7 [1]): 7.27%
- Activity (MCF7 [2]): 80.77%
- Activity (MCF7 [3]): 49.5%
- Activity [4]: Non-toxic
- inhibition (MCF7 [5]): Dose-dependent-effect
- selectivity ratio [6]: 10.6
- Activity (MCF7 [7]): 0.77%
- Activity (MCF7 [8]): 18.98%
- Activity (MCF7 [9]): 13.7%
- inhibition in vivo at 15 mg/kg (4T1 [10]): 33.5%
- Activity (MCF7 [11]): 66.09%
- Activity (MCF7 [12]): 0.99%
- Activity (MCF7 [13]): 0.77%
- Activity [14]: Non-toxic
- Activity (MCF7 [15]): 12.9%
- inhibition (MCF7 [16]): Dose-dependent-effect
- Activity (MCF7 [17]): 14.93%
- growth inhibition (GI) (MCF7 [18]): Active
- IC50 (MCF7 [19]): 3.06 µM
- Activity (MCF7 [20]): 26.2%
- Activity [21]: Non-toxic
- Activity (MCF7 [22]): 2.87%
- viability at 6 µM (MCF7 [23]): 53%
- Activity (MCF7 [24]): Dose-dependent-effect
- Activity [25]: Non-toxic
- Activity [26]: Non-toxic
- inhibition in vivo at 30 mg/kg (4T1 [27]): 86.2%
- Activity [28]: Non-toxic
- Activity (MCF7 [29]): 44.5%
- IC50 (A549): 4.76 µM
- Activity [30]: Non-toxic
- IC50 (HepG2): 5.55 µM
- Activity [31]: Non-toxic
- Activity (MCF7 [32]): 10.83%
- Activity [33]: Non-toxic
